How the values were obtained:
Carbonic anhydrase 1 = Carbonic anhydrase 1 (Homo sapiens, UniProt P00915)
Description: Inhibition of human recombinant carbonic anhydrase I assessed as inhibition constant incubated for 15 mins by stopped-flow technique

Carbonic anhydrase 9 = Carbonic anhydrase 9 (Homo sapiens, UniProt Q16790)
Description: Inhibition of human recombinant carbonic anhydrase 9 assessed as inhibition constant incubated for 15 mins by stopped-flow technique

Carbonic anhydrase 12 = Carbonic anhydrase 12 (Homo sapiens, UniProt O43570)
Description: Inhibition of human recombinant carbonic anhydrase 12 assessed as inhibition constant incubated for 15 mins by stopped-flow technique

Carbonic anhydrase 2 = Carbonic anhydrase 2 (Homo sapiens, UniProt P00918)
Description: Inhibition of human recombinant carbonic anhydrase 2 assessed as inhibition constant incubated for 15 mins by stopped-flow technique

Chain of Carbonic anhydrase 1 (P00915 whole entry): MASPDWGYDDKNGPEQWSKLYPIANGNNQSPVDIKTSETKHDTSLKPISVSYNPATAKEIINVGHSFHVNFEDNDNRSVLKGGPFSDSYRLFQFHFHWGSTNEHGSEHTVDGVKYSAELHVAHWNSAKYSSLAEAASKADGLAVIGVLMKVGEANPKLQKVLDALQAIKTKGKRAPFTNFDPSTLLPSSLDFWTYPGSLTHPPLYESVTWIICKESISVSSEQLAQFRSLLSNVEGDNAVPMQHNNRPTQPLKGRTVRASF
Chain of Carbonic anhydrase 12 (O43570 whole entry): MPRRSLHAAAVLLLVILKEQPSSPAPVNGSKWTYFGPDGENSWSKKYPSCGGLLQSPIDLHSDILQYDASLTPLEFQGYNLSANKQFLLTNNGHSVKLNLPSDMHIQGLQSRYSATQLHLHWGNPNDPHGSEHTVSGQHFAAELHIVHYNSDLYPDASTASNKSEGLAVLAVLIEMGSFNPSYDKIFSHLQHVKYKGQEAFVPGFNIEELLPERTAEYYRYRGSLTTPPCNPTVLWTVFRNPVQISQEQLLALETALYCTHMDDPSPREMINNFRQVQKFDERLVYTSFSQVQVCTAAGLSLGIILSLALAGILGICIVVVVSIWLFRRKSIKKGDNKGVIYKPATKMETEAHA

Ki (Carbonic anhydrase 1): 4.21 µM
Ki (Carbonic anhydrase 9): 7.68 µM
Ki (Carbonic anhydrase 12): 8.21 µM
Ki (Carbonic anhydrase 2): 5.97 µM
Structure (SMILES): O=C(O)Cc1nnn[nH]1

— ChEMBL document CHEMBL6096713, “Tetrazole Is a Novel Zinc Binder Chemotype for Carbonic Anhydrase Inhibition” (ACS Med Chem Lett, 2025)
